{
  "source": "patent US9986723B2",
  "about": "“Screen and use of therapeutics for pancreatic ductal adenocarcinoma” (The Board of Regents of the University of Texas System, priority 2014, dated 2018)",
  "key": {"C5LM2 cells": {"test_system": "C5LM2 cells", "experiment": "Liver metastases after intrasplenic tumor cell injection", "assay_type": "in vivo, mouse", "settings": "warfarin 1 mg/L, pre or post (48 hrs) tumor cell injection", "description": "(§1) FIGS. 25A-I. Axl inhibition reduces colony formation and enhances chemotherapy. (FIGS. 25A-C) parental Mia PaCa-2 cells or Mia PaCa-2 cells stably transfected with shRNA targeting Axl (Mia shAxl) were grown as spheroids in matrigel for 7 days in the presence or absence of warfarin (200 ng/ml), n=4/condition. Mia PaCa-2 cell colonies form large stellate colonies characteristic of invasive tumor growth. Colonies and cognate cell projections were imaged (FIG. 25A) with a Nikon Phase contrast microscope using 40× and 200× magnification. Mean total colony number (FIG. 25B) and total colony area+/−s.d. (FIG. 25C) reflective of invasive growth were calculated using Image J image analysis. […] (FIG. 25E) liver metastases were quantified after intrasplenic injection of C5LM2 cells. […] Mice were sacrificed when control treated animals were moribund and primary and metastatic burden was determined. […]\nAnimal studies. […] Mice with established tumors, as determined by sonography were randomized to receive normal drinking water or water containing 1 mg/L (˜3.0 μM) warfarin for experiments in immunocompromised mice and 0.5 mg/L (˜1.5 μM) in experiments in immunocompetent animals with or without gemcitabine 25 mg/kg twice weekly depending on experimental design. […] Metastatic incidence was determined by visual inspection of the liver and abdominal cavity and confirmed by H&E of liver sections. […]"}, "Pan02 tumors": {"test_system": "Pan02 tumors", "experiment": "Low dose warfarin in drinking water, syngenic orthotopic model", "assay_type": "in vivo, mouse", "settings": "warfarin 0.5 mg/L drinking water", "description": "(FIG. 23A) Primary tumor burden after therapy with warfarin. Therapy was initiated when implanted tumors were visible by ultrasound (˜10 mm^3) and consisted of control (normal drinking water) or warfarin, administered in the drinking water at 0.5 mg/L (immunocompetent mice: Pan02 (n=4, control; 3, warfarin), KIC (n=10, control; 8, warfarin)) or 1 mg/L (Panc-1 (n=10, control; 8, warfarin), AsPC-1 (n=8, control; 6, warfarin), Capan-1 (n=10, control; 7, warfarin)) and continued for 2-4 weeks until control mice were moribund. Therapy in KIC mice was initiated at 3 weeks of age and continued for 4 weeks. (FIG. 23B) Metastases were determined grossly upon sacrifice and confirmed by histological evaluation of the liver. […] Incidence of metastasis is also indicated. […] Tumor volume determined by serial ultrasound. […] Therapy with mAb 10C9 (250 μg 2×/week) was initiated when tumors were established as above and persisted for 4 weeks. […] Error bars indicate s.e.m.\nAnimal studies. […] Mice with established tumors, as determined by sonography were randomized to receive normal drinking water or water containing 1 mg/L (˜3.0 μM) warfarin for experiments in immunocompromised mice and 0.5 mg/L (˜1.5 μM) in experiments in immunocompetent animals with or without gemcitabine 25 mg/kg twice weekly depending on experimental design."}, "Mia PaCa-2 cells": {"test_system": "Mia PaCa-2 cells", "experiment": "Spheroid assay in matrigel (3D culture)", "assay_type": "cell-based, human", "settings": "warfarin 200 ng/ml, 7 days", "description": "as §1\nFor spheroid assays, matrigel was coated on 18×18 mm glass cover-slides in a 35 mm culture dish, using Reduced Growth Factor Matrigel (BD Bioscience) as described previously (Gjerdrum et al., 2010; Lee et al., 2007). […] Quantitative analysis of 3D organotypic structures was performed using Image J analysis software. Total number of established structures and the ability of established structures to migrate into the BM (Total area) were quantified and compared."}},
  "data": [
    {"smiles": "CC(=O)CC(c1ccccc1)c1c(O)c2ccccc2oc1=O", "note": "(racemic) [Warfarin]", "values": [
      {"measurement": "liver colonization after intrasplenic injection", "setting": "C5LM2 cells", "result": "inhibited liver colonization"},
      {"measurement": "primary tumor growth", "setting": "Pan02 tumors", "result": "reduced primary tumor growth"},
      {"measurement": "tumor cell sphere formation and invasiveness in 3D culture", "setting": "Mia PaCa-2 cells", "result": "inhibited"}
    ]}
  ]
}
